From US6737383B1, “Herbicidal oxadiazolidines” (priority 1999, dated 2004)

Assays:
[1] = tested on: bamyardgrass; assay: Test B flood test barnyardgrass; type: in vivo, Echinochloa crus-galli
Method in brief: (§1)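 Plants were grown to the 2-leaf stage before treatment with test chemical, then held in a greenhouse for twelve to sixteen days. Injury was visually rated against untreated controls on a 0–10 scale, where 0 is no effect and 10 is complete control.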

[2] = tested on: duck salad; assay: Test B flood test duck salad; type: in vivo, Heteranthera limosa
Method in brief: as §1

[3] = tested on: rape; assay: Test B pre/postemergence rape; type: in vivo, Brassica napus
Method in brief: (§2)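 Test chemicals in a non-phytotoxic solvent mixture with surfactant were sprayed preemergence onto planted seeds and postemergence onto plants 2 to 18 cm tall (1- to 4-leaf stage). After twelve to sixteen days in a greenhouse, injury was visually rated against untreated controls from 0 (no effect) to 10 (complete control).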

[4] = tested on: purple nutsedge; assay: Test B pre/postemergence purple nutsedge; type: in vivo, Cyperus rotundus
Method in brief: as §2

[5] = tested on: bedstraw; assay: Test B pre/postemergence bedstraw; type: in vivo, Galium aparine; details: Rate 62 g/ha, Postemergence; scale 0 to 10 (0 no effect, 10 complete control)
Method in brief: as §2

[6] = tested on: wheat; assay: Test B pre/postemergence wheat; type: in vivo, Triticum aestivum
Method in brief: as §2

[7] = tested on: soybean; assay: Test B pre/postemergence soybean; type: in vivo, Glycine max
Method in brief: as §2

[8] = tested on: crabgrass; assay: Test B pre/postemergence crabgrass; type: in vivo, Digitaria sanguinalis
Method in brief: as §2

[9] = tested on: smallflower flatsedge; assay: Test B flood test smallflower flatsedge; type: in vivo, Cyperus difformis
Method in brief: as §1

[10] = tested on: velvetleaf; assay: Test B pre/postemergence velvetleaf; type: in vivo, Abutilon theophrasti
Method in brief: as §2

[11] = tested on: rice; assay: Test B flood test rice; type: in vivo, Oryza sativa
Method in brief: as §1

[12] = tested on: corn; assay: Test B pre/postemergence corn; type: in vivo, Zea mays
Method in brief: as §2

[13] = tested on: blackgrass; assay: Test B pre/postemergence blackgrass; type: in vivo, Alopecurus myosuroides
Method in brief: as §2

[14] = tested on: surinam grass; assay: Test B pre/postemergence surinam grass; type: in vivo, Brachiaria decumbens
Method in brief: as §2

[15] = tested on: cocklebur; assay: Test B pre/postemergence cocklebur; type: in vivo, Xanthium strumarium
Method in brief: as §2

[16] = tested on: wild oat; assay: Test B pre/postemergence wild oat; type: in vivo, Avena fatua
Method in brief: as §2

[17] = tested on: sugar beet; assay: Test B pre/postemergence sugar beet; type: in vivo, Beta vulgaris
Method in brief: as §2

[18] = Rate 62 g/ha, flood test species, Pre-emergence, visual evaluation after twelve to sixteen days
[19] = Rate 125 g/ha, under heading Pre-emergence, flood test species, visual evaluation after twelve to sixteen days
[20] = Rate 250 g/ha, Pre-emergence (flood test species), scale 0 to 10, 0 is no effect, 10 is complete control
[21] = Rate 500 g/ha, Pre-emergence, flood test species, scale 0 to 10 (0 no effect, 10 complete control)
[22] = Postemergence, Rate 250 g/ha, scale 0 to 10
[23] = Postemergence, Rate 500 g/ha, scale of 0 to 10 where 0 is no effect and 10 is complete control
[24] = Preemergence, Rate 62 g/ha, scale of 0 to 10 where 0 is no effect and 10 is complete control
[25] = Preemergence, Rate 125 g/ha, scale of 0 to 10 where 0 is no effect and 10 is complete control
[26] = Preemergence, Rate 250 g/ha, scale 0 to 10, 0 is no effect, 10 is complete control
[27] = Preemergence, Rate 500 g/ha, scale 0 to 10, 0 is no effect, 10 is complete control
[28] = Rate 62 g/ha, Postemergence, scale 0 to 10 (0 no effect, 10 complete control)
[29] = Rate 125 g/ha, Postemergence, scale 0 to 10, 0 is no effect, 10 is complete control

SMILES: COCC(OC)n1c(=O)on(C(=O)N(c2ccc(F)cc2)C(C)C)c1=O (centres unmarked) [Compound 446]
- Plant response rating, Barnyardgrass (0 to 10 scale, 0 is no effect, 10 is complete control) [1, 18]: 0
- Barnyardgrass plant response rating (0 to 10 scale, 0 is no effect, 10 is complete control) [1, 19]: 0
- Barnyardgrass plant response rating [1, 20]: 0
- Barnyardgrass plant response rating [1, 21]: 0
- Plant response rating, Ducksalad (0 to 10 scale, 0 is no effect, 10 is complete control) [2, 18]: 0
- Ducksalad plant response rating (0 to 10 scale, 0 is no effect, 10 is complete control) [2, 19]: 0
- Ducksalad plant response rating [2, 20]: 0
- Ducksalad plant response rating [2, 21]: 0
- Rape plant response rating [3, 22]: 0
- Rape plant response rating [3, 23]: 0
- Plant response rating, Rape [3, 24]: 0
- Plant response rating, Rape [3, 25]: 0
- Rape plant response rating [3, 26]: 8
- Rape plant response rating [3, 27]: 10
- Rape plant response rating [3, 28]: 0
- Rape plant response rating [3, 29]: 0
- Nutsedge plant response rating [4, 22]: 0
- Nutsedge plant response rating [4, 23]: 0
- Plant response rating, Nutsedge [4, 24]: 0
- Plant response rating, Nutsedge [4, 25]: 0
- Nutsedge plant response rating [4, 26]: 0
- Nutsedge plant response rating [4, 27]: 0
- Nutsedge plant response rating [4, 28]: 0
- Nutsedge plant response rating [4, 29]: 0
- Bedstraw plant response rating [5]: 0
- Wheat plant response rating [6, 22]: 3
- Wheat plant response rating [6, 23]: 3
- Plant response rating, Wheat [6, 24]: 0
- Plant response rating, Wheat [6, 25]: 2
- Wheat plant response rating [6, 26]: 3
- Wheat plant response rating [6, 27]: 7
- Wheat plant response rating [6, 28]: 0
- Wheat plant response rating [6, 29]: 0
- Soybean plant response rating [7, 22]: 4
- Soybean plant response rating [7, 23]: 4
- Plant response rating, Soybean [7, 24]: 0
- Plant response rating, Soybean [7, 25]: 0
- Soybean plant response rating [7, 26]: 2
- Soybean plant response rating [7, 27]: 2
- Soybean plant response rating [7, 28]: 1
- Soybean plant response rating [7, 29]: 2
- Crabgrass plant response rating [8, 22]: 9
- Crabgrass plant response rating [8, 23]: 9
- Plant response rating, Crabgrass [8, 24]: 8
- Plant response rating, Crabgrass [8, 25]: 8
- Crabgrass plant response rating [8, 26]: 9
- Crabgrass plant response rating [8, 27]: 9
- Crabgrass plant response rating [8, 28]: 5
- Crabgrass plant response rating [8, 29]: 9
- Plant response rating, S. Flatsedge (0 to 10 scale, 0 is no effect, 10 is complete control) [9, 18]: 0
- S. Flatsedge plant response rating (0 to 10 scale, 0 is no effect, 10 is complete control) [9, 19]: 0
- S. Flatsedge plant response rating [9, 20]: 0
- S. Flatsedge plant response rating [9, 21]: 0
- Velvetleaf plant response rating [10, 22]: 2
- Velvetleaf plant response rating [10, 23]: 3
- Plant response rating, Velvetleaf [10, 24]: 0
- Plant response rating, Velvetleaf [10, 25]: 3
- Velvetleaf plant response rating [10, 26]: 7
- Velvetleaf plant response rating [10, 27]: 10
- Velvetleaf plant response rating [10, 28]: 0
- Velvetleaf plant response rating [10, 29]: 0
- Plant response rating, Rice (0 to 10 scale, 0 is no effect, 10 is complete control) [11, 18]: 0
- Rice plant response rating (0 to 10 scale, 0 is no effect, 10 is complete control) [11, 19]: 0
- Rice plant response rating [11, 20]: 0
- Rice plant response rating [11, 21]: 0
- Corn plant response rating [12, 22]: 0
- Corn plant response rating [12, 23]: 5
- Plant response rating, Corn [12, 24]: 0
- Plant response rating, Corn [12, 25]: 0
- Corn plant response rating [12, 26]: 2
- Corn plant response rating [12, 27]: 6
- Corn plant response rating [12, 28]: 0
- Corn plant response rating [12, 29]: 0
- Blackgrass plant response rating [13, 22]: 8
- Blackgrass plant response rating [13, 23]: 9
- Plant response rating, Blackgrass [13, 24]: 5
- Plant response rating, Blackgrass [13, 25]: 7
- Blackgrass plant response rating [13, 26]: 8
- Blackgrass plant response rating [13, 27]: 10
- Blackgrass plant response rating [13, 28]: 4
- Blackgrass plant response rating [13, 29]: 8
- B. signalgrass plant response rating ([14]; Postemergence, Rate 250 g/ha, scale 0 to 10, 0 no effect, 10 complete control): 6
- B. signalgrass plant response rating [14, 23]: 8
- Plant response rating, B. signalgrass [14, 24]: 0
- Plant response rating, B. signalgrass [14, 25]: 6
- B. signalgrass plant response rating [14, 26]: 7
- B. signalgrass plant response rating [14, 27]: 8
- B. signalgrass plant response rating [14, 28]: 2
- B. signalgrass plant response rating [14, 29]: 3
- Cocklebur plant response rating [15, 22]: 0
- Cocklebur plant response rating [15, 23]: 0
- Plant response rating, Cocklebur [15, 24]: 0
- Plant response rating, Cocklebur [15, 25]: 0
- Cocklebur plant response rating [15, 26]: 0
- Cocklebur plant response rating [15, 27]: 0
- Cocklebur plant response rating [15, 28]: 0
- Cocklebur plant response rating [15, 29]: 0
- Wild oats plant response rating [16, 22]: 3
- Wild oats plant response rating [16, 23]: 3
- Plant response rating, Wild oats [16, 24]: 0
- Plant response rating, Wild oats [16, 25]: 5
- Wild oats plant response rating [16, 26]: 8
- Wild oats plant response rating [16, 27]: 10
- Wild oats plant response rating [16, 28]: 0
- Wild oats plant response rating [16, 29]: 0
- Sugarbeets plant response rating [17, 22]: 0
- Sugarbeets plant response rating [17, 23]: 0
- Plant response rating, Sugarbeets [17, 24]: 0
- Plant response rating, Sugarbeets [17, 25]: 4
- Sugarbeets plant response rating [17, 26]: 6
- Sugarbeets plant response rating [17, 27]: 8
- Sugarbeets plant response rating [17, 28]: 0
- Sugarbeets plant response rating [17, 29]: 0
